Legend:
OXA-24/40 [1] = target: T1, OXA-24/40 (Acinetobacter baumannii, UniProt Q8RLA6, K84D); assay: X-ray crystal structure of acyl-enzyme ([…] Å); type: binding
T1 construct: gene blaOXA-33

OXA-24/40 [2] = target: T1, OXA-24/40; assay: X-ray crystal structure ([…] Å), intact β-lactam; type: binding

T1 sequence (Q8RLA6 32-275 K84D): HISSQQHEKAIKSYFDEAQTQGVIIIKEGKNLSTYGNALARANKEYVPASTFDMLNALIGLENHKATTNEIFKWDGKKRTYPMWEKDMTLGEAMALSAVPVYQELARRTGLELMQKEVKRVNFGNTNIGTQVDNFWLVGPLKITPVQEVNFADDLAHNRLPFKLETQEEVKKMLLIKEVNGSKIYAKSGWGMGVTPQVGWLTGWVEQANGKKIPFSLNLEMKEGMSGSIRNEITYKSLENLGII

SMILES: C[C@@H](O)[C@H]1C(=O)N2C(C(=O)O)=C(SCCN=CN)C[C@H]12 [imipenem]
- X-ray crystal structure of acyl-enzyme (2.28 Å) (OXA-24/40 [1]): A predominant conformation for imipenem was observed in the K84D complex

SMILES: C[C@@H](O)[C@H]1C(=O)N2C(C(=O)O)=C(S[C@@H]3CN[C@H](C(=O)Nc4cccc(C(=O)O)c4)C3)[C@H](C)[C@H]12 [ertapenem]
- X-ray crystal structure (2.58 Å), intact β-lactam (OXA-24/40 [2]): In the K84D–ertapenem structure, ertapenem is bound as an intact β-lactam, yet in an unproductive binding mode
